Test results reported in patent publication US9649324B2, “Use of tylvalosin as antiviral agent” (ECO ANIMAL HEALTH LIMITED, priority 2006, dated 2017).

Columns and labels:
HRT-18 cells = experiment: Intracellular accumulation of macrolides in HRT-18 cells; assay type: in vitro ADME, human; details: for intracellular:extracellular ratio: human, 10 μg/mL
Description: HRT-18 cells, in 6 cm tissue cultures dishes, were incubated in the presence of 0.5, 5 or 50 μg/mL tylvalosin. After 4 h, two dishes for each tylvalosin concentration and two dishes without antibiotic were removed from the incubator. A sample of medium (about 1 mL) was removed, placed in a labelled Eppendorf tube and stored at −20° C. The rest of the medium was then removed. Each of the cell monolayers was washed twice in PBS, using approximately 5 mL for each wash. The plunger from a 2 mL plastic syringe was used to gently scrape off the cells. PBS (500 μL) was added to the dish and the cells gently removed into this medium, using a micropipette. The sample was then placed in an Eppendorf tube and centrifuged at 8000×g in a bench centrifuge (Biofuge pico, Heraeus instruments) for 13 sec. An obvious cell pellet formed. The supernatant was removed using a micropipette and the cell material was stored at −20° C. in a labelled Eppendorf tube. After approximately 24 h the remaining tissue culture dishes were removed from the incubator and treated as described above for the 4 h samples. All the samples, including the 4 h samples, were then stored at −70° C.
HRT-18 cells were prepared as described above and used at passage 42. Stock solutions of antibiotics (either tylvalosin, tylosin or tilmicosin) were diluted in growth media and 10 μg/mL each antibiotic was added to the confluent cell monolayers. The cells were incubated at 37° C. in a 5% CO2 atmosphere for either 4 h or 24 h. The media and cells were harvested and tested for antibiotic, as described above.
(§1) All the supernatant and cell samples were transported frozen (at approximately −20° C.) to York Bioanalytical Solutions (York, England) for analysis. Briefly, 0.25 g of buffer (RPMI medium containing 10% FCS) was weighed into a polypropylene tube. A 50 μL volume of the appropriate working solution was added to the quality control (QC) samples. Methanol (50 μL) was added to each blank sample used for preparation of calibration standards, recovery samples and reagent blanks. A 2.5 mL volume of 0.1 M phosphate buffer was added to each sample, vortex mixed for approximately 1 min and then centrifuged at 3220×g for 10 min at 4° C.
(§2) For the liquid-liquid clean-up phase, an aliquot (100 μL) of the supernatant was transferred to a polypropylene tube. The pH was adjusted to pH 8-8.5 by the addition of 0.1 M NaOH, and vortex mixed. Ethyl acetate (5 mL) was added and after capping, the whole mixture was shaken for 10 min and then centrifuged at 3220×g for 10 min at 4° C.
(§3) Ammonium acetate (20 mM; pH native)—formic acid, 1000:3, v/v (100 μL) was added to each well in a 2 mL polypropylene collection plate. An aliquot of the ethyl acetate mixture (100 μL) was transferred to the polypropylene collection plate and evaporated under nitrogen (40° C.) until the ethyl acetate was fully evaporated whilst the ammonium acetate remained. Methanol (100 μL) was added to each well, excluding the calibration standards.
(§4) To each well containing a calibration standard, 100 μL of the appropriate calibration working solution was added. Samples were then vortex mixed for at least 10 min and submitted for liquid chromatography with tandem mass spectrometric analysis. The method stated was applicable to the samples of media (and the calibration standards and quality control samples).
(§5) For the cells, the sample tubes were weighed, and 100 μL of acetonitrile was added. The samples were vortex mixed for 10 sec, then centrifuged at 10285×g at 4° C. for 5 min. The sample was transferred to a polypropylene tube. The original sample tube was washed with 0.1 M phosphate buffer (1 mL). This was transferred to the polypropylene tube. A second wash of 1 mL was made, then a final wash of 0.5 mL. The polypropylene tube was now at the same stage as the end of the liquid extraction, but with the cells present rather than media. This was then taken through the sample preparation as described above. […]

[1] = in vivo; cited from earlier work
EAV = experiment: Sensitivity to chloroquine (Example 8), EAV
PRRSV [2] = experiment: Inhibitors of PRRSV infection added at various times pre and post infection (Example 7); assay type: cell-based; details: for PRRSV spread / initial PRRSV infection (initial site of infection): added 2 or 4 hours after infection
PRRSV [3] = tested on: PRRSV
[4] = tested on: equine arteritis virus (EAV); experiment: Effect on equine arteritis virus infection (Example 6); assay type: cell-based
Description: Experiments were carried out to determine whether tylvalosin has an effect on equine arteritis virus (EAV).

endosomal pH = experiment: Acridine orange assay of endosomal pH (Example 13); assay type: cell-based; details: acridine orange stained endosomes, any cell line
Description: Acridine orange is a dye that causes cells to fluoresce green with the exception of acidic compartments (such as endosomes) that appear red—due to the protonation of the dye and quenching of the green fluorescence. A substance that raises the endosomal pH will prevent the appearance of the red fluorescence. The effect of Aivlosin® and other macrolide antibiotics on a the staining of endosomes by acridine orange in number of cells lines was determined (see FIG. 19). An area of cells grown on a glass coverslip is first selected using a DAPI stain. […] This selection procedure helps reduce any bias in the results. The green and red filters on the epifluorescence microscope were then used to examine about 20 cells. The number of red spots (endosome vesicles) in was determined. The average number of Acridine orange stained endosomes was counted.

[5] = tested on: VR2332 (US strain of PRRSV); experiment: VR2332 (US strain of PRRSV) entry assay in MA104 cells (Example 10); details: 4 h pretreatment, moi 10, overnight
[6] = tested on: chicken white blood cells; experiment: Intracellular accumulation in chicken white blood cells; assay type: in vitro ADME; set-up: intracellular:extracellular ratio, variation during the experimental time period: dose or concentration left out as unconfirmed; details: chicken
Description: Pig blood was collected in Heparin-coated BD vacutainers (6). 20 mL of blood and 30 mL of phosphate buffered saline (PBS) were mixed in a 50 mL conical centrifuge tube. This was repeated in order to obtain 3 such tubes. The mixtures were centrifuged for 10 min at 2050×g. The white blood cells, together with some red blood cells below, were harvested into a 50 mL conical centrifuge tube. PBS was added to about 50 mL. A 63% solution of Percoll was made as follows: 6.3 mL Percoll (Sigma), 1.0 mL 1.5 M NaCl, 2.7 mL H2O. 10 mL of 63% Percoll was added to each of two 50 mL conical centrifuge tubes. 25 mL of the resuspended white blood cells were carefully layered on top of the each of the Percoll solutions. A sharp interface was produced. The material was centrifuged at 3000×g for 10 min. […] The white blood cells were harvested in PBS (50 mL) and centrifuged at 500×g for 10 min. The cell pellet was resuspended in medium (Glasgow minimum essential medium containing penicillin and streptomycin). A viable cell count was made using trypan blue. The same method used for isolation of pig WBCs was used for the chicken WBCs, with the exception that heparin (100 I.U./mL) was prepared and mixed with an equal volume of chicken whole blood.
All tubes were placed on a rotary mixing machine, at 37° C. Supernatant and cell samples were harvested at the times described in the figure legends. Duplicate samples were used for each antibiotic for each time point.
as §1, §2, §3, §4, §5

PRRSV [7] = experiment: Effect of macrolides on PRRSV (background statement)
Caco-2 cells = experiment: Intracellular accumulation and trans-epithelial transport in polarised Caco-2 cells; assay type: in vitro ADME, human; details: human, Caco-2, 240 min, 10 μg/mL
Description: Caco-2 cells were seeded at a density of 0.8×10^6 cells per well of a Transwell Clear filter 6 well plate, 0.4 μm pore size. The cells were incubated with 2 mL medium in both apical and basolateral chambers. This medium was replaced every 2 days for 10-14 days. Transepithelial resistance was measured using Millicell ERS apparatus (Millipore) at day 7, 10 and/or 14 in order to identify when the cells had become polarised. Readings of >1000 Ω were indicative of polarised cells. […]
as §1, §2, §3, §4
(§6) For the cells, the sample tubes were weighed, and 100 μL of acetonitrile was added. The samples were vortex mixed for 10 sec, then centrifuged at 10285×g at 4° C. for 5 min. The sample was transferred to a polypropylene tube. The original sample tube was washed with 0.1 M phosphate buffer (1 mL). This was transferred to the polypropylene tube. A second wash of 1 mL was made, then a final wash of 0.5 mL. The polypropylene tube was now at the same stage as the end of the liquid extraction, but with the cells present rather than media. This was then taken through the sample preparation as described above. The original sample tubes were allowed to dry (i.e. any remaining solvent evaporated off) and were then reweighed to determine the weight of cells in the sample, to allow the concentration per gram of cells to be determined.

LLC-PK1 cells = experiment: Intracellular accumulation in pig kidney epithelial cells; assay type: in vitro ADME; details: pig, 75 min, 10 μg/mL
Description: LLC-PKI cells in 6 cm^2 plastic tissue culture dishes were incubated with 10 μg/mL of the different macrolides. Cells and medium were harvested as described above at 30, 75 and 120 min.
as §1, §2, §3, §4, §6

## CC[C@H]1OC(=O)C[C@@H](OC(C)=O)[C@H](C)[C@@H](O[C@@H]2O[C@H](C)[C@@H](O[C@H]3C[C@@](C)(O)[C@@H](O)[C@H](C)O3)[C@H](N(C)C)[C@H]2O)[C@@H](CC=O)C[C@@H](C)C(=O)/C=C/C(C)=C/C1CO[C@@H]1O[C@H](C)[C@@H](O)[C@@H](OC)[C@H]1OC (stereo partly drawn) [3-acetyltylosin, 3-O-Acetyltylosin]
HRT-18 cells
  uptake and accumulation in cells: behave in the same way

## CC[C@H]1OC(=O)[C@H](C)[C@@H](O[C@H]2C[C@@](C)(OC)[C@@H](O)[C@H](C)O2)[C@H](C)[C@@H](O[C@@H]2O[C@H](C)C[C@H](N(C)C)[C@H]2O)[C@](C)(O)C[C@@H](C)CN(C)[C@H](C)[C@@H](O)[C@]1(C)O [azithromycin]
[1]
  transintestinal elimination, share of the total administered dose: 30-35%

## CCN(CC)CCCC(C)Nc1ccnc2cc(Cl)ccc12 (stereo not drawn) [chloroquine]
FCV
  concentration required to inhibit infection: ≥ 200 µM
EAV
  concentration required to inhibit infection: ≥ 50 µM
PRRSV [2]
  PRRSV spread: no effect
  initial PRRSV infection (initial site of infection): no effect
PRRSV [2]; added 4 hours before infection
  initial PRRSV infection: inhibited
PRRSV [2]; added at the time of infection
  initial PRRSV infection: inhibited
PRRSV [3]
  concentration required to inhibit infection: less than 5 μM

## CN(C)CCCN1c2ccccc2Sc2ccc(Cl)cc21 [chlorpromazine]
PRRSV [2]
  PRRSV spread: appeared to prevent spread
  initial PRRSV infection (initial site of infection): showed the initial site of infection
PRRSV [2]; added 4 hours before infection
  initial PRRSV infection: inhibited
PRRSV [2]; added at the time of infection
  initial PRRSV infection: inhibited

## CC[C@H]1OC(=O)[C@H](C)[C@@H](O[C@H]2C[C@@](C)(OC)[C@@H](O)[C@H](C)O2)[C@H](C)[C@@H](O[C@@H]2O[C@H](C)C[C@H](N(C)C)[C@H]2O)[C@](C)(OC)C[C@@H](C)C(=O)[C@H](C)[C@@H](O)[C@]1(C)O [clarithromycin]
[1]
  transintestinal elimination, share of the total administered dose: about 10%

## C=C1[C@@H](C)[C@H]2[C@H](Cc3ccccc3)NC(=O)[C@]23[C@H](OC(C)=O)/C=C/[C@@](C)(O)C(=O)[C@@H](C)C/C=C/[C@H]3[C@@H]1O [cytochalasin D]
PRRSV [2]
  PRRSV spread: no spread could be detected
  initial PRRSV infection (initial site of infection): no effect
PRRSV [2]; added 4 hours before infection
  initial PRRSV infection: inhibited
PRRSV [2]; added at the time of infection
  initial PRRSV infection: inhibited

## COC(=O)Nc1nc2ccc(C(=O)c3cccs3)cc2[nH]1 [nocodazole]
[4]
  EAV infection: not blocked
PRRSV [2]
  initial PRRSV infection (initial site of infection): no effect
PRRSV [2]; added 4 hours before infection
  initial PRRSV infection: inhibited
PRRSV [2]; added at the time of infection
  initial PRRSV infection: did not inhibit

## CC[C@H]1OC(=O)C[C@@H](O)[C@H](C)[C@@H](O[C@@H]2O[C@H](C)[C@@H](O[C@H]3C[C@@](C)(O)[C@@H](O)[C@H](C)O3)[C@H](N(C)C)[C@H]2O)[C@@H](CC=O)C[C@@H](C)C(=O)/C=C/C(C)=C/[C@@H]1CO[C@@H]1O[C@H](C)[C@@H](O)[C@@H](OC)[C@H]1OC [tylosin]
Endosomal pH
  effect on raising the pH in the endosomes: did not have much effect
[5]
  inhibition of VR2332 infection: not
[6]
  intracellular:extracellular ratio, variation during the experimental time period: 2.65-4.7 fold
[6]; 15 min, 10 μg/mL
  average intracellular concentration: 10.1 μg/mg cells
[6]; 60 min, 10 μg/mL
  intracellular concentration: 32.1 μg/mg cells
HRT-18 cells; 4 h
  intracellular:extracellular ratio: less than 1 fold
HRT-18 cells; 24 h
  intracellular:extracellular ratio: less than 1 fold
PRRSV [7]
  effect on PRRSV: no effect
Caco-2 cells
  average intracellular concentration: 1.86 μg/mg cells
  basolateral chamber content as average % of the apical chamber value: 0.52%
LLC-PK1 cells
  average intracellular concentration: 2.41 μg/mg cells
